Test results published in patent EP0135172A2, “Method for treatment of osteoporosis” (Takeda Chemical Industries, Ltd., priority 1983, dated 1985).

Legend:
[1] = tested on: young oophorectomized rats; assay: Estrogenic activity (uterine wet weight) in young oophorectomized rats; format: in vivo, Sprague-Dawley rats
Description: Sprague-Dawley rats, 33 days old and 11 days after oophorectomy for elimination of endogenous estrogenic activity, were used in groups of 6 to 7 animals. Compound (I) was suspended in a 1% aqueous solution of hydroxypropylcellulose and administered orally for 3 days, while as a representative example of the conventional estrogen drug, estrone was dissolved in sesame oil and administered subcutaneously for 3 days. On the fourth day, each animal was autopsied and its uterine wet weight was recorded.
Sprague-Dawley rats, 33 days old and 11 days after oophorectomy for elimination of endogenous estrogenic activity, were used in groups of 7 animals. Compound (II) was suspended in a 1% aqueous solution of hydroxypropylcellulose and administered orally.

[2] = tested on: rat fetal long bone culture; assay: Bone resorption inhibiting activity in rat fetal long bone culture (45Ca release, method of Raisz); format: cell-based, Sprague-Dawley rat; settings: for ^45Ca (%) released: incubated 3 days, mean ± S.D. of six bones; for bone resorption: result in words, summary of Table 3
Description: Determination of bone resorption was performed by the method of Raisz [J. Clin. Invest. 44, 103-116 (1965)]. rhus, a Sprague-Dawley rat on the 19th day of pregnancy was subcutaneously injected with 50 p Ci of 45Ca (isotope of calcium, CaCl2 solution), and was laparotomized on the following day. The embryos were aseptically taken out, the forelimbs (radius and ulna) were cut off from the trunk under a binocular dissecting microscope, and the connective tissue and cartilage were removed as much as possible to prepare bone samples. Each bone sample was preincubated at 37°C for 24 hours in 0.6 mℓ of the medium containing 2 mg/mℓ of bovine serum albumin in BGJb medium (Fitton-Jackson modification) [GIBCO Laboratories, Grand Island, NY 14072 U.S.A.]. Then, the sample was further incubated for 3 days in the same medium as above in which 10 µg/mℓ or 25 µg/mℓ of compound (I) or 10 µg/mℓ of compound (II) had been incorporated. Then, the radioactivity of 45Ca in the medium and that of 45Ca in the bone were measured and the percentage (%) of ^45Ca released from the bone into the medium was calculated by the following formula.
Percentage (%) of 45 Ca released from bone into medium [formula]
As control, the bones of the embryos from the same litter were similarly incubated in the absence of compound (I) or (II) for 3 days.

ICR mice = assay: Acute toxicity in mice; format: in vivo; settings: observed 14 days, LD50 could not be calculated
Description: (§1) Five-week-old ICR mice and 5-week-old Sprague-Dawley rats were respectively used in groups of 10 males and 10 females, and suspensions of compound (I) or compound (II) in olive oil were administered orally [2,500, 5,000 and 10,000 mg/kg of each compound] or subcutaneously [1,250, 2,500 and 5,000 mg/kg]. The animals were kept under observation for 14 days.

Sprague-Dawley rats = assay: Acute toxicity in rats; format: in vivo; settings: observed 14 days, LD50 could not be calculated
Description: as §1

[3] = tested on: rat fetal long bone culture; assay: Inhibition of the bone resorption potentiating action of parathyroid hormone in rat fetal long bone culture; format: cell-based
Description: The bone samples prepared in the same manner as Test Example 3 were pre-incubated for 24 hours in the same medium as that prepared in Test Example 3 which contains bovine serum album in BGJb medium (Fitton-Jackson modification). Then, in the concomitant presence of PTH (parathyroid hormone, a bone resorption stimulant) and compound (II), the samples were further incubated for 3 days and the percentage of ^45Ca released into the medium was calculated by means of the same formula as that in Test Example 3. As control experiments, the same determination was made for a control group using the medium supplemented with PTH alone.

[4] = orally 2,500, 5,000 and 10,000 mg/kg in olive oil
[5] = subcutaneously 1,250, 2,500 and 5,000 mg/kg in olive oil

## O=c1c(-c2ccccc2)coc2cc(O)ccc12 [Compound (I), 7-hydroxy-isoflavone]
[1]; daily dose 6.25 mg/kg orally for 3 days, control group 35.0 ± 1.0
  Uterine wet weight (mg ± S.D.): 32.8 ± 1.1 mg
[1]; daily dose 12.5 mg/kg orally for 3 days, control group 35.0 ± 1.0
  Uterine wet weight (mg ± S.D.): 33.4 ± 0.9 mg
[1]; daily dose 25 mg/kg orally for 3 days, control group 35.0 ± 1.0
  Uterine wet weight (mg ± S.D.): 35.1 ± 0.8 mg
[1]; daily dose 50 mg/kg orally for 3 days, control group 35.0 ± 1.0
  Uterine wet weight (mg ± S.D.): 35.3 ± 1.7 mg
[1]; daily dose 100 mg/kg orally for 3 days, control group 35.0 ± 1.0
  Uterine wet weight (mg ± S.D.): 35.9 ± 1.0 mg
[1]; daily dose 200 mg/kg orally for 3 days, control group 35.0 ± 1.0
  Uterine wet weight (mg ± S.D.): 57.9 ± 1.0 mg
[1]; daily dose 400 mg/kg orally for 3 days, control group 35.0 ± 1.0
  Uterine wet weight (mg ± S.D.): 70.4 ± 6.7 mg
[1]; orally, daily dose levels of 200 mg/kg and 400 mg/kg
  uterine weight increasing effect, dose-response curve: produced uterine weight increasing effect with a dose-response curve of moderate gradient
[2]; 10 µg/mℓ, control group 20.6 ± 3.8
  ^45Ca (%) released: 16.5 ± 2.5 %
[2]; 25 µg/mℓ, control group 20.6 ± 3.8
  ^45Ca (%) released: 13.5 ± 2.5 %
[2]
  bone resorption: suppressed bone resorption

## O=c1c(-c2ccc(O)cc2)coc2cc(O)ccc12 [Compound (II), 7,4'-dihydroxy-isoflavone]
ICR mice; [4]
  deaths and toxic symptoms: None of the groups showed deaths nor toxic symptoms
ICR mice; [5]
  deaths and toxic symptoms: None of the groups showed deaths nor toxic symptoms
Sprague-Dawley rats; [4]
  deaths and toxic symptoms: None of the groups showed deaths nor toxic symptoms
Sprague-Dawley rats; [5]
  deaths and toxic symptoms: None of the groups showed deaths nor toxic symptoms
[1]; Test Example 2, daily dose 6.25 mg/kg orally, control group 31.1 ± 1.1
  Uterine wet weight (mg ± S.D.): 33.2 ± 0.8 mg
[1]; Test Example 2, daily dose 25 mg/kg orally, control group 31.1 ± 1.1
  Uterine wet weight (mg ± S.D.): 32.8 ± 1.0 mg
[1]; Test Example 2, daily dose 100 mg/kg orally, control group 31.1 ± 1.1
  Uterine wet weight (mg ± S.D.): 35.3 ± 1.3 mg
[1]; Test Example 2, daily dose 400 mg/kg orally, control group 31.1 ± 1.1
  Uterine wet weight (mg ± S.D.): 62.3 ± 6.0 mg
[1]; orally, dose level of 400 mg/kg
  uterine weight increasing activity: showed mild uterine weight increasing activity
[2]; 10 µg/mℓ, control group 19.9 ± 5.0
  ^45Ca (%) released: 15.9 ± 1.3 %
[2]
  bone resorption: suppressed bone resorption
[3]; 10 µg/ml in concomitant presence of PTH, incubated 3 days, control group (PTH alone) 30.8±4.3
  ^45Ca (%) released: 23.5±3.4 %
[3]; result in words, summary of Table 4
  PTH-stimulated bone resorption: suppressed PTH-stimulated bone resorption

## C[C@]12CC[C@@H]3c4ccc(O)cc4CC[C@H]3[C@@H]1CCC2=O [Estrone, estrone, reference compound]
[1]; daily dose 0.0025 mg/kg subcutaneously in sesame oil for 3 days, control group 35.0 ± 1.0
  Uterine wet weight (mg ± S.D.): 101.7 ± 4.6 mg
[1]; daily dose 0.005 mg/kg subcutaneously in sesame oil for 3 days, control group 35.0 ± 1.0
  Uterine wet weight (mg ± S.D.): 159.8 ± 9.4 mg
[1]; daily dose 0.01 mg/kg subcutaneously in sesame oil for 3 days, control group 35.0 ± 1.0
  Uterine wet weight (mg ± S.D.): 223.3 ± 12.5 mg
